Assay results from patent US7432302B2, “Composition containing polyamine transport inhibitor and use thereof” (MediQuest Therapeutics, Inc., priority 2001, dated 2008).
Read-outs that look alike come from different tables or passages of the source.

Tests used:
spermine synthase = target: T1, spermine synthase (Homo sapiens, UniProt P52788); settings: cited from earlier work
T1 sequence (P52788 1-366): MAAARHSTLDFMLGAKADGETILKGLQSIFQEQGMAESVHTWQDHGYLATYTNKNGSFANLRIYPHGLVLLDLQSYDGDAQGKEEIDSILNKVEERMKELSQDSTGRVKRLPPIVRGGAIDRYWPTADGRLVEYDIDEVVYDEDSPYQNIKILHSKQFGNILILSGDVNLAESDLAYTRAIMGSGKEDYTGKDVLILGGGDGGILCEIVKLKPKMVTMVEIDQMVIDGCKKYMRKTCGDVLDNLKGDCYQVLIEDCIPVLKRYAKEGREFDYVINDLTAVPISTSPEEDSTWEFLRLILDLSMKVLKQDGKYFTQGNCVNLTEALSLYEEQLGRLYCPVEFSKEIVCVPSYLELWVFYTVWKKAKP

cultured follicles = settings: in culture media: DFMO 500 μM; N-butyl-1,3-diaminopropane 50 μM; cited from earlier work
ODC = target: T2, ODC (Rattus norvegicus, UniProt P09057); settings: cited from earlier work
T2 construct: from tissue; host or cells: rat liver
T2 sequence (P09057 1-461): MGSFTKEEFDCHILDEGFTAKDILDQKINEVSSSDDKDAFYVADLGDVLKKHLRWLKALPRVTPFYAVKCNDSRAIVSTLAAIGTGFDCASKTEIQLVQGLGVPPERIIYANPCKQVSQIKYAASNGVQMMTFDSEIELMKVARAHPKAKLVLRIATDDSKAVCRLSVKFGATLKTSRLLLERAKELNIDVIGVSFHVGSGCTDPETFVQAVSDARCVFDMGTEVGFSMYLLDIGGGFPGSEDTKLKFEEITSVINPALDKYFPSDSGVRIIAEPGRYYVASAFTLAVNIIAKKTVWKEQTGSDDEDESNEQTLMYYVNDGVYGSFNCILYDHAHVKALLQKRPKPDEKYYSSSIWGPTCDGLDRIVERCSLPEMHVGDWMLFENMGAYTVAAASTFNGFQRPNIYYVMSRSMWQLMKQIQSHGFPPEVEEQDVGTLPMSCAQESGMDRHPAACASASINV

[1] = tested on: epidermal ornithine decarboxylase activity; settings: mice, 0.5% BHT in food for two weeks, UV radiation; cited from earlier work
ODC activity = settings: at 4 to 5 hr after TPA treatment; cited from earlier work
[2] = tested on: cell growth in the presence of DFMO; assay: Growth inhibition assay in combination with DFMO; assay type: cell-based; settings: for EC50: 144 h; for Ave EC50 Value: 0.5 µM SPD
Experimental: Medias were obtained from Mediatech, Inc. (Hemdon, Va.) and serums from Gibco BRL (Gaithersburg, Md.). 50 U/ml penicillin, 50 μg/ml streptomycin and 2 mM L-glutamine (all from Bio Whittaker, Walkersville, Md.) were included in all cultures. […] When cells were cultured with polyamines or ORI compounds, 1 mM aminoguanidine (AG; Sigma) was included to inhibit serum amine oxidase activity.

polyamine transporter = assay: Polyamine transport inhibition (3H-spermidine uptake, MDA-MB-231 cells); assay type: cell-based, human
Experimental: The Ki values were determined using double reciprocal Lineweaver-Burke plot analyses.

CCCCNCCCN [N-butyl-1,3-diaminopropane]
Ki (spermine synthase): 11.9 nM | effect on the growth of cultured follicles (cultured follicles): no effect

NCCCC(N)(CCl)C(=O)O (stereo not shown) [—CH2Cl]
t1/2 (ODC; Table 1, at 100 μM): t1/2 = 22 min | Ki value (ODC; Table 1 substrate analogs, apparent dissociation constant, rat liver enzyme): No satd kinetics

Cc1cc(C(C)(C)C)c(O)c(C(C)(C)C)c1 [BHT, butylated hydroxytoluene]
inhibition of measured ODC activity [1]: 70%

CCCCCCCCCCCCCC(=O)O[C@@H]1[C@@H](C)[C@@]2(O)[C@@H](C=C(CO)C[C@]3(O)C(=O)C(C)=C[C@@H]23)[C@@H]2C(C)(C)[C@]12OC(C)=O [TPA, 12-O-tetradecanoyl-phorbol-13-acetate]
peak ODC activity greater than control (ODC activity): 230 fold

CCCCCCCCCCCCCCCC(=O)NCCCC[C@H](N)C(=O)NCCCNCCCCNCCCN [IA4]
potency in cell growth inhibition assay [2]: demonstrated potency | EC50 ([2]; read-out: Ave EC50 Value): 130 nM | EC50 ([2]; read-out: Ave EC50 value): 130 nM | potency in transporter inhibition assay (polyamine transporter): demonstrated potency
